Data from the NIST ThermoML archive (doi:10.1021/acs.jced.9b00046).

Test: mn = molality of the nth substance listed, in mol/kg
Conditions: 99.6 kPa, Liquid; for viscosity: Capillary tube (Ostwald / Ubbelohde) method; for mass density: Vibrating tube method

CNC(C)=O [N-methylacetamide] + [Cl-].[Cl-].[Mg+2]
Conditions	mass density, 308.15 K [kg/m3]	mass density, 313.15 K [kg/m3]	mass density, 318.15 K [kg/m3]	mass density, 323.15 K [kg/m3]	mass density, 328.15 K [kg/m3]	viscosity, 308.15 K [mPa·s]	viscosity, 313.15 K [mPa·s]	viscosity, 318.15 K [mPa·s]	viscosity, 323.15 K [mPa·s]	viscosity, 328.15 K [mPa·s]
m2 = 0	945.71	941.53	937.33	933.16	928.93	3.488	3.073	2.723	2.438	2.194
m2 = 0.00111	945.76	941.57	937.37	933.2	928.98	3.491	3.077	2.725	2.44	2.196
m2 = 0.004	945.9	941.69	937.51	933.33	929.12	3.502	3.087	2.735	2.448	2.203
m2 = 0.00479	945.94	941.73	937.54	933.37	929.16	3.505	3.09	2.737	2.451	2.204
m2 = 0.00663	946.03	941.81	937.63	933.45	929.24	3.512	3.097	2.743	2.455	2.208
m2 = 0.00734	946.06	941.85	937.66	933.48	929.29	3.514	3.099	2.747	2.457	2.211
m2 = 0.00868	946.13	941.92	937.73	933.54	929.35	3.52	3.103	2.75	2.462	2.214
m2 = 0.01179	946.27	942.07	937.87	933.7	929.49	3.531	3.114	2.76	2.471	2.221
m2 = 0.01529	946.45	942.24	938.04	933.87	929.68	3.544	3.127	2.771	2.48	2.23
m2 = 0.02124	946.72	942.53	938.33	934.15	929.95	3.566	3.147	2.792	2.495	2.244
m2 = 0.02416	946.86	942.67	938.47	934.29	930.09	3.577	3.156	2.801	2.505	2.251
m2 = 0.05144	948.15	943.94	939.77	935.6	931.4	3.681	3.251	2.89	2.579	2.317
m2 = 0.0831	949.6	945.45	941.26	937.11	932.91	3.798	3.361	2.994	2.67	2.391
